In patent US20230357248A1, “PYRROLOPYRIMIDINE COMPOUND AS BTK INHIBITOR AND USE THEREOF” (MEDSHINE DISCOVERY INC., priority 2019, published 2023):

Experiments:
TMD8 cells = assay: BTK cell activity assay (CellTiter Glo); format: cell-based; settings: Homo sapiens, Cell Titer Glo, read-out: Relative IC50
Protocol: 1. Cell Culture and Passage
The medium, trypsin and 1×PBS used in the cell passage process were preheated in a 37° C. water bath. The supernatant was aspirated.
1 mL of trypsin was added to rinse, and the rinse solution was aspirated. 1 mL of trypsin was added, respectively, and cells were digested at 37° C. until the cells fell off. 10 mL of culture medium was added and mixed well. The mixture was centrifuged at 1000 rpm for 5 min and the cells were resuspended in 10 mL of culture medium. 0.7 mL of cell suspension was pipetted into a counting cup and counted on ViCell XR to respectively obtain a cell density of 0.327 million/mL. 1.17 mL of cell suspension and culture medium were weighed, respectively, to dilute the cell suspension. According to the microplate layout diagram below, 100 μL of phosphate buffer was added to the peripheral wells of the 384-well microplate, and 40 μL of cell suspension was added to other wells, respectively. The cell plate was then cultured in an incubator.
2. Dosing • (1) Preparation of compound:
A 9 μL dilution of the compound to be assayed was added to a shallow-well plate for Pod (Labcyte, #LP-0200). The shallow-well plate was centrifuged at 2500 rpm for 30 s. • (2) The cell plate was removed from the incubator. • (3) According to the microplate layout diagram below, compounds were serially diluted 3-fold in Pod to obtain 10 concentrations. The diluted compounds were added to the cell plate at 100 nL, respectively, and then the cell plate was returned to the incubator for culture. • 3. At Day 0, 20 μL of CellTiter Glo was added to the plate with DMSO added, and the mixture was shaken in the dark for 10 minutes. The plate was read with Envision. • 4. At Day 5: CTG was added and the plate was read. • (1) After being cultured for 72 h, 20 μL of Cell Titer Glo was added to the cell plate, and the mixture was shaken in the dark for 10 minutes. • (2) The plate was read with Envision.
Assay Results • 1. Average value and standard deviation of 0% inhibition (DMSO well, MAX) and 100% inhibition (day 0, DMSO) in each group were calculated; • 2. […]

[1] = Pharmacokinetic evaluation in SD rat (intravenous); format: in vivo; settings: about 0.5 mg/kg
Protocol: Assay purpose: To assay the pharmacokinetics of the compound in SD rat (intravenous)
Pharmacokinetic study of oral and intravenously injected compound 4 and reference example 1 in SD rat.
Compound 4 and reference example 1 were mixed with the solvent (10% NMP/60% PEG400/30% H2O). The mixture was vortexed and sonicated to prepare a clarified solution of 0.5 mg/mL. […] Whole blood was collected for a certain period of time to prepare the plasma. Drug concentration was analyzed by LC-MS/MS, and pharmacokinetic parameters were calculated by Phoenix WinNonlin software (Pharsight, USA).

Q: Which IC50 (TMD8 cells) does the source give for CO[C@@H]1C[C@@H](CO)OC[C@@H]1Nc1ncnc2[nH]cc(C(=O)c3ccc(Oc4ccccc4)cc3Cl)c12 [Compound 4] here?
A: 261 nM

Q: What about the AUCu ([1]; AUCu = AUC0-inf * Unbound PPB (in vivo assay of PPB in rat)) of the same compound?
A: 0.0034 µM·h

Q: And the AUC(0-inf) ([1]; male, plasma)?
A: 1.7 µM·h

Q: What about the C0 ([1]; male, plasma) of the same compound?
A: 852 nM

Q: What about the Vd ([1]; male, plasma) of the same compound?
A: 1.42 L/kg

Q: What about the clearance ([1]; male, plasma) of the same compound?
A: 9.8 mL/min/kg

Q: What about the half-life ([1]; male, plasma) of the same compound?
A: 1.82 h
